Experimental data reported in patent publication US20090247579A1, “2-[3H-THIAZOL-2-YLIDINEMETHYL]PYRIDINES AND RELATED COMPOUNDS AND THEIR USE” (CANCER RESEARCH TECHNOLOGY LIMITED, priority 2006, published 2009).

Key:
[1] = system: A2780/cp70 human ovarian, cisplatin resistant, cell line grown as xenograft; experiment: Xenograft study, A2780/cp70 in nude mice; assay type: in vivo; details: single bolus day 0, MMR201 1 mg/kg i.v. (tolerated dose), cisplatin 6 mg/kg i.p. (maximum tolerated dose)
Protocol: (§1) For xenograft experiments, tumour cells were injected into the flanks of athymic nude mice and allowed to establish until palpable tumour could be detected. Following single bolus injection of drug, tumour growth was monitored using calliper measurement of tumour size and calculation of tumour volume.
(§2) Cells in exponential phase of growth were harvested with trypsin and re-suspended in phosphate buffered saline. About 10^7 cells in a total volume of 200 μL of PBS were injected subcutaneously in the right flank of CD1 nude mice. They were used for experiments after about 7 to 10 days by which time the mean tumour diameter was about 0.5 cm.
(§3) Mice were weighed and tumour volumes measured. The mice were randomised in groups of 6 and treated either with the drug or with the solvent alone. The drug was dissolved in DMSO and diluted in sterile PBS just before injection to give a final DMSO concentration of 1%. The drugs solution was prepared such that the injection volume was 5 μL per gram body weight. […]
(§4) Mice were then weighed daily and tumour volumes estimated from two measurements of the diameter taken at a 90° angle. The volume was determined by the formula: v=D^3/6×π, where v=volume and D is the mean diameter. Results (Mean and SEM) are expressed as the relative tumour volume, which is the tumour volume on any given day divided by the initial tumour volume calculated for each mouse.

CACO2 = experiment: Modified MTT assay, colon panel CACO2; assay type: cell-based; details: Homo sapiens, Caco-2, MMR proficient, p53 mut, read-out: MMR201 IC50
Protocol: (§5) Relative drug sensitivities (Resistance Factor) and IC50 values were determined by a modified MTT assay (see, e.g., Mosmann, 1983; Plumb et al., 1989), as described below: • (1) Trypsinise a sub-confluent monolayer culture and collect cells in growth medium containing serum. Centrifuge the suspension (200 g, 5 minutes) to pellet cells, re-suspend in growth medium, and count cells. Dilute cells to a density of 5×10^3 cells/mL allowing 60 mL of cell suspension for 3 microtitre plates. Transfer cell suspension to a 10 cm petri dish, and with a multichannel pipette add 200 μL to each well of the central 10 columns of a flat bottomed 96-well plate (80 wells per plate) starting with column 2 and ending with column 11. Add 200 μL of growth medium to the 8 wells in columns 1 and 12. […] Pipette 6 mL of growth medium in to each of 7 universal containers (30 mL). Prepare 10 mL of the highest concentration of the drug and transfer 1.5 mL of this solution to the first universal container. Mix and then transfer 1.5 mL to the next universal container. Continue until the seventh universal container is reached. The concentrations should be chosen so that the highest concentration kills most of the cells and the lowest kills none of the cells.

PARP cleavage = experiment: Apoptosis as determined by PARP cleavage; assay type: cell-based
LOVO (MSH2) = experiment: Modified MTT assay, colon panel LOVO; assay type: cell-based; details: Homo sapiens, MMR deficient, p53 wt, read-out: MMR201 IC50
Protocol: as §5

[2] = system: HCT116 human colon tumour cell line grown as xenograft; experiment: Xenograft study, HCT116 in nude mice; assay type: in vivo; details: single bolus day 0, MMR201 1 or 2 mg/kg i.v. (tolerated doses), cisplatin 6 mg/kg i.p. (maximum tolerated dose)
Protocol: as §1, §2, §3, §4

p53 = experiment: Induction of p53 expression; assay type: cell-based; details: at doses that were shown to induce apoptosis

Structure (SMILES): CC[n+]1c(/C=C2\Sc3oc4ccccc4c3N2C)ccc2cc(C)ccc21.[I-] [MMR201]
- Tumour growth (relative tumour volume) of A2780/cp70 xenograft [1]: can inhibit growth
- IC50 (CACO2): 474 ± 16 nM
- Apoptosis in MLH1 negative cells (PARP cleavage; MLH1 negative cells, PARP cleavage, 24 hours): increased apoptosis at lower drug concentrations
- Apoptosis as determined by PARP cleavage (PARP cleavage; incubation for 24 hours): induces apoptosis
- IC50 (LOVO (MSH2)): 431 ± 11.2 nM
- Tumour growth (relative tumour volume) of HCT116 xenograft [2]: inhibits growth
- Induction of p53 expression (p53): does not induce expression of p53
